Data as given in patent publication US20250134874A1, “PHARMACEUTICAL FORMULATIONS COMPRISING 3-({[(4R)-7-{METHYL[4-(PROPAN-2-YL)PHENYL]AMINO}-3,4-DIHYDRO-2H-1-BENZOPYRAN-4-YL]METHYL}AMINO)PYRIDINE-4-CARBOXYLIC ACID” (TACHYON THERAPEUTICS, INC., priority 2021, published 2025).

Test system: 301 cancer cell lines from different tumor types (OncoPanel; HD Biosciences)
Experiment: 2D cell viability inhibition assay (CellTiter-Glo) in cancer cell line panel
Format: cell-based
Parameters: key to AUC: AUC as fraction of the no-inhibition area (dose range × 0–100 % of control)
Conditions: for Emax: in %
Experimental: In a larger screening study, compound 1 was evaluated across a broad cancer cell line panel (OncoPanel; HD Biosciences) composed of 301 cancer cell lines from different tumor types.
2D cell viability inhibition assays were performed in multiwell plates seeded with cells from the panel. After seeding, the plates were cultured overnight in a humidified incubator at 37° C. to promote adherence. Assays were initiated in individual wells by adding either DMSO as a vehicle control, growth media as a blank, or serially diluted compound 1 (10 μM to 0.0005 μM with 1:3 serial dilution). Cultures were incubated for 168 hours after which the number of viable cells in each test well was assessed using the CellTiter-Glo® Luminescent Cell Viability Assay. Luminescence readouts were performed using an EnVision® Multilabel Reader and the compound 1 readouts were normalized to the DMSO control readouts, expressed as a percent of the control. Outliers were flagged out by visual inspection. Percent of control was plotted against the corresponding compound 1 concentration and the absolute IC50 value was determined using four-parameter logistic non-linear regression as the concentration where inhibition was 50% of the control. For maximum inhibition <50%, the absolute IC50 was reported as >10. In addition to EC50 and IC50, AUC was determined and was normalized to the area corresponding to theoretical no-inhibition (the rectangular area defined by the compound dose range and 0 to 100 in y). Emax was recorded as the minimum in y with the compound dose range. For those cell lines where Emax>40, EC50 was manually set to 10 μM. A hierarchical clustering algorithm based on Euclidean distance between the standardized input values and “Ward.D” method as implemented in R hclust function was used to visualize the compound 1 cellular potency data. The sensitive/moderate/resistant calls for each cell line was determined by visually inspecting the resulting clustering dendrogram. All the analyses were done in R Core Team.

SMILES: CC(C)c1ccc(N(C)c2ccc3c(c2)OCC[C@H]3CNc2cnccc2C(=O)O)cc1 [Compound 1, 3-({[(4R)-7-{methyl[4-(propan-2-yl)phenyl]amino}-3,4-dihydro-2H-1-benzopyran-4-yl]methyl}amino)pyridine-4-carboxylic acid]
- AUC (143B cell line): 0.3582
- Emax (143B cell line): 2.196
- AUC (647V cell line): 0.3912
- Emax (647V cell line): 10.18
- AUC (5637 cell line): 0.4857
- EC50 (5637 cell line): 0.00224 µM
- IC50 (5637 cell line): 0.00611 µM
- Emax (5637 cell line): 33.01
- AUC (7860 cell line): 0.5049
- IC50 (168 h, HS688AT, skin, NS): > 10 µM
- IC50 (168 h, HS739T, breast, NS): > 10 µM
- IC50 (168 h, HS839T, skin, NS): > 10 µM
- IC50 (168 h, HS852T, skin, NS): > 10 µM
- IC50 (168 h, HUH28, biliary tract, NS): > 10 µM
- IC50 (168 h, KG1, haematopoietic and lymphoid tissue, acute myeloid leukaemia): > 10 µM
- IC50 (168 h, KURAMOCHI, ovary, undifferentiated carcinoma): > 10 µM
- IC50 (168 h, NMCG1, central nervous system, NS): > 10 µM
- IC50 (168 h, SKMEL31, skin, NS): > 10 µM
- IC50 (168 h, T24, urinary tract, transitional cell carcinoma): > 10 µM
- IC50 (168 h, TE1, oesophagus, squamous cell carcinoma): > 10 µM
- IC50 (168 h, TE8, oesophagus, squamous cell carcinoma): > 10 µM
- AUC (A101D cell line): 0.4689
- Emax (A101D cell line): 20.46
- AUC (A204, soft tissue, NS, 168 hours): 0.7136
- AUC (A375 cell line): 0.4405
- Emax (A375 cell line): 19.51
- AUC (A549 cell line): 0.573
- AUC (A2058 cell line): 0.5694
- AUC (A2780 cell line): 0.1811
- AUC (ACHN cell line): 0.453
- AUC (AGS cell line): 0.3536
- Emax (AGS cell line): 14.1129
- AUC (ASPC1 cell line): 0.5812
- AUC (AZ521 cell line): 0.2875
- AUC (BFTC905 cell line): 0.3989
- Emax (BFTC905 cell line): 13.74
- AUC (BICR18 cell line): 0.619
- EC50 (BICR18 cell line): 0.187 µM
- IC50 (BICR18 cell line): 0.194 µM
- AUC (BICR22 cell line): 0.6829
- IC50 (BICR22 cell line): > 10 µM
- AUC (BT20, breast, ductal carcinoma, 168 hours): 0.9117
- AUC (BT474, breast, ductal carcinoma, 168 hours): 0.7206
- AUC (BT549 cell line): 0.431
- Emax (BT549 cell line): 20.55
- AUC (BXPC3 cell line): 0.5738
- AUC (C2BBE1, large intestine, adenocarcinoma, 168 hours): 0.8303
- AUC (C32 cell line): 0.2532
- AUC (CAKI1 cell line): 0.5319
- Emax (CAKI1 cell line): 34.03
- AUC (CAL27, upper aerodigestive tract, squamous cell carcinoma, 168 hours): 0.8335
- AUC (CALU1, lung, squamous cell carcinoma, 168 hours): 1.217
- AUC (CALU3, lung, adenocarcinoma, 168 hours): 0.7277
- AUC (CALU6 cell line): 0.4595
- Emax (CALU6 cell line): 18.32
- AUC (CAOV3 cell line): 0.3908
- Emax (CAOV3 cell line): 19.3273
- AUC (CAPAN1 cell line): 0.6391
- AUC (CAPAN2, pancreas, ductal carcinoma, 168 hours): 0.8808
- AUC (CCFSTTG1, central nervous system, astrocytoma, 168 hours): 0.879
- AUC (CFPAC1 cell line): 0.5227
- Emax (CFPAC1 cell line): 29.22
- AUC (CHL1 cell line): 0.3493
- AUC (COLO205 cell line): 0.4833
- Emax (COLO205 cell line): 27.13
- AUC (COLO320HSR cell line): 0.2403
- AUC (COLO679 cell line): 0.502
- AUC (COLO680N cell line): 0.5311
- Emax (COLO680N cell line): 33.76
- AUC (COLO741 cell line): 0.4186
- Emax (COLO741 cell line): 18.78
- AUC (COLO829 cell line): 0.6557
- AUC (CORL279 cell line): 0.3155
- AUC (DAOY, central nervous system, NS, 168 hours): 0.9684
- AUC (DAUDI cell line): 0.5383
- Emax (DAUDI cell line): 25.4109
- AUC (DETROIT562 cell line): 0.5873
- Emax (DETROIT562 cell line): 36.51
- AUC (DLD1 cell line): 0.226
- AUC (DMS53, lung, small cell carcinoma, 168 hours): 0.7426
- AUC (DMS79 cell line): 0.3845
- AUC (DMS153 cell line): 0.6737
- AUC (DMS273 cell line): 0.4815
- AUC (DU145 cell line): 0.4324
- Emax (DU145 cell line): 18.16
- AUC (DV90 cell line): 0.3698
- Emax (DV90 cell line): 11.78
- AUC (ECGI10 cell line): 0.5683
- EC50 (ECGI10 cell line): ≥ 10 µM
- IC50 (ECGI10 cell line): 0.0224 µM
- AUC (FTC133 cell line): 0.4146
- Emax (FTC133 cell line): 22.3385
- AUC (G361, skin, NS, 168 hours): 1.044
- AUC (G401 cell line): 0.2508
- AUC (GAK cell line): 0.6649
- IC50 (GAK cell line): > 10 µM
- AUC (GI1 cell line): 0.6237
- AUC (GP2D cell line): 0.506
- EC50 (GP2d, GP2D cell line): 0.0206 µM
- IC50 (GP2d, GP2D cell line): 0.0262 µM
- AUC (GRANTA519 cell line): 0.4686
- Emax (GRANTA519 cell line): 17.91
- AUC (HCC38, breast, ductal carcinoma, 168 hours): 0.9864
- AUC (HCC70 cell line): 0.4135
- Emax (HCC70 cell line): 13.85
- AUC (HCC78 cell line): 0.5315
- AUC (HCC95 cell line): 0.4072
- AUC (HCC827, lung, adenocarcinoma, 168 hours): 0.8814
- AUC (HCC1143 cell line): 0.6906
- AUC (HCC1187 cell line): 0.465
- Emax (HCC1187 cell line): 34
- AUC (HCC1419, breast, ductal carcinoma, 168 hours): 0.7201
- AUC (HCC1428, breast, NS, 168 hours): 0.7818
